Reference: patent US20220347171A1, “TREATMENT OF PRURIGO NODULARIS” (TREVI THERAPEUTICS, INC., priority 2016, published 2022)
Counter-ions that a name gives are not always drawn.

What was measured:
[1] = test system: prurigo nodularis patients; test: Phase 2 open label extension study (TR03ext, Example 3), titrated 30 mg QD to 180 mg BID, up to 50 weeks: Worst itch NRS; type: in vivo, human; settings: for Worst Itch NRS Visit Mean (SD): Baseline 7.6 (1.6)
Description: (§1) This clinical study was a Phase 2 Open Label Extension Study (clinical study TR03ext) of the randomized, double-blind, 3-parallel arm, placebo controlled dose ranging study described in Example 2. All those subjects who were randomized, and then completed Example 2 study, were eligible to participate in the Extension Study.
(§2) The primary endpoint was a description of the overall incidence and nature of Treatment-Emergent AEs (TEAES) during weeks 5-50 of the study. Exploratory efficacy endpoints included Change from Baseline patient reported outcome measures of Worst itch NRS, itchy VRS and ItchyQoL, by Treatment Period study visit and Baseline NRS score. There was also an assessment of any potential skin lesion changes over time using the metrics of the PAS.
(§3) Of the 63 patients that were randomized to the study of Example 2, 36 subjects who enrolled into Extension Study entered the Treatment Period of the study and were exposed to nalbuphine HCl ER tablet administration and are the basis of the study safety population analysis.
(§4) Patients in Extension Study were titrated over a dose range of 30 mg QD to 180 mg BID based on tolerability. The selected dose range was based on Example 2 study whereby patients were titrated from a 30 mg QD dose either to 30 mg BID, 60 mg BID, 90 mg BID, 120 mg BID or a 180 mg BID dose. The highest dose proposed was 180 mg BID (360 mg daily dose), and was well below the highest recommended daily treatment of 160 mg IV (equivalent to 960 mg oral) for the current marketed parenteral administered product.
(§5) The study duration for each patient was up to 52 weeks, with up to 50 weeks on study drug. The Extension Study consisted of a Treatment Period (that was followed by a Washout Safety Follow-up Period) and an Observation Period. Patients either entered directly into a drug Treatment Period (NRS >5) or a no-drug Observation Period (NRS ≤5) based on their reported NRS scores on the first Visit (Visit 1a). For up to 12 Extended Screening weeks, patients in the no-drug Observation Period could have also transitioned into the drug Treatment Period if their NRS increased to NRS >5. All patients entering the Treatment Period, whether immediately upon study entry or following a period of time in the Observation Period, were titrated to a dose ranging between 30 mg up to 180 mg BID, the highest dose tested in Example 2.

[2] = test system: prurigo nodularis patients; test: TR03ext (Example 3), titrated 30 mg QD to 180 mg BID: ItchyQoL Total Score; type: in vivo, human; settings: Baseline 75.2 (15.1)
Description: as §1, §2, §3, §4, §5

## Oc1ccc2c3c1OC1[C@@H](O)CC[C@@]4(O)[C@@H](C2)N(CC2CCC2)CC[C@]314 (stereo partly drawn) [Nalbuphine, 17-(cyclobutylmethyl)-4,5α-epoxymorphinian-3, 6α, 14-triol, hydrochloride]
[1]; Study Week 3, N=34
  Worst Itch NRS Mean (SD) Change from Baseline: −2.0 (2.2)
  Worst Itch NRS Visit Mean (SD): 5.7 (2.4)
[1]; Study Week 5, N=33
  Worst Itch NRS Mean (SD) Change from Baseline: −2.5 (2.2)
  Worst Itch NRS Visit Mean (SD): 5.2 (2.5)
[1]; Study Week 9, N=30
  Worst Itch NRS Mean (SD) Change from Baseline: −2.9 (2.2)
  Worst Itch NRS Visit Mean (SD): 4.6 (2.3)
[1]; Study Week 13, N=25
  Worst Itch NRS Mean (SD) Change from Baseline: −2.7 (1.8)
  Worst Itch NRS Visit Mean (SD): 4.8 (2.2)
[1]; Study Week 17, N=25
  Worst Itch NRS Mean (SD) Change from Baseline: −3.6 (2.6)
  Worst Itch NRS Visit Mean (SD): 3.8 (2.4)
[1]; Study Week 21, N=22
  Worst Itch NRS Mean (SD) Change from Baseline: −3.3 (2.4)
  Worst Itch NRS Visit Mean (SD): 4.1 (2.4)
[1]; Study Week 26, N=21
  Worst Itch NRS Mean (SD) Change from Baseline: −3.9 (2.2)
  Worst Itch NRS Visit Mean (SD): 3.4 (1.6)
[1]; Study Week 30, N=20
  Worst Itch NRS Mean (SD) Change from Baseline: −4.2 (2.3)
  Worst Itch NRS Visit Mean (SD): 3.2 (1.6)
[1]; Study Week 34, N=18
  Worst Itch NRS Mean (SD) Change from Baseline: −3.9 (2.1)
  Worst Itch NRS Visit Mean (SD): 3.3 (1.6)
[1]; Study Week 38, N=17
  Worst Itch NRS Mean (SD) Change from Baseline: −3.9 (1.7)
  Worst Itch NRS Visit Mean (SD): 3.2 (1.6)
[1]; Study Week 42, N=17
  Worst Itch NRS Mean (SD) Change from Baseline: −3.9 (1.4)
  Worst Itch NRS Visit Mean (SD): 3.2 (1.4)
[1]; Study Week 46, N=17
  Worst Itch NRS Mean (SD) Change from Baseline: −3.9 (1.3)
  Worst Itch NRS Visit Mean (SD): 3.2 (1.5)
[1]; Study Week 50, N=15
  Worst Itch NRS Mean (SD) Change from Baseline: −4.3 (1.3)
  Worst Itch NRS Visit Mean (SD): 2.9 (1.7)
[2]; Study Week 3, N=33
  ItchyQoL Total Score Visit Mean (SD): 70.3 (18.7)
[2]; Study Week 5, N=31
  ItchyQoL Total Score Visit Mean (SD): 67.8 (19.0)
[2]; Study Week 9, N=28
  ItchyQoL Total Score Visit Mean (SD): 65.8 (18.5)
[2]; Study Week 13, N=24
  ItchyQoL Total Score Visit Mean (SD): 65.7 (17.4)
[2]; Study Week 17, N=24
  ItchyQoL Total Score Visit Mean (SD): 63.5 (19.4)
[2]; Study Week 21, N=21
  ItchyQoL Total Score Visit Mean (SD): 62.6 (18.0)
[2]; Study Week 26, N=20
  ItchyQoL Total Score Visit Mean (SD): 59.4 (16.8)
[2]; Study Week 30, N=19
  ItchyQoL Total Score Visit Mean (SD): 60.8 (18.9)
[2]; Study Week 34, N=17
  ItchyQoL Total Score Visit Mean (SD): 62.2 (15.2)
[2]; Study Week 38, N=16
  ItchyQoL Total Score Visit Mean (SD): 61.9 (16.1)
[2]; Study Week 42, N=16
  ItchyQoL Total Score Visit Mean (SD): 63.4 (15.3)
[2]; Study Week 46, N=16
  ItchyQoL Total Score Visit Mean (SD): 62.4 (14.1)
[2]; Study Week 50, N=14
  ItchyQoL Total Score Visit Mean (SD): 63.3 (15.9)
